Assay results reported in PubChem BioAssay (NCI).
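Values below derive from 48-hour exposures of cells grown in 96-well plates, with endpoints linearly interpolated between the two concentrations bracketing the appropriate inhibition level. TGI: concentration producing complete growth inhibition.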

Experiments:
Assay in all cases: NCI tumour cell line growth inhibition, 48 h
BT-549 breast = system: BT-549 breast
DU-145 prostate = system: DU-145 prostate
HCT-116 colon = system: HCT-116 colon
HOP-62 NSCLC = system: HOP-62 NSCLC
HOP-92 NSCLC = system: HOP-92 NSCLC
HS 578T breast = system: HS 578T breast
MDA-MB-231 breast = system: MDA-MB-231 breast
MOLT-4 leukemia = system: MOLT-4 leukemia
NCI-H460 lung = system: NCI-H460 lung
OVCAR-3 ovarian = system: OVCAR-3 ovarian
RPMI-8226 leukemia = system: RPMI-8226 leukemia
SF-268 CNS = system: SF-268 CNS
SF-539 CNS = system: SF-539 CNS
SK-MEL-2 melanoma = system: SK-MEL-2 melanoma
SK-OV-3 ovarian = system: SK-OV-3 ovarian
SN12C renal = system: SN12C renal
SNB-19 CNS = system: SNB-19 CNS
SNB-75 CNS = system: SNB-75 CNS
SW-620 colon = system: SW-620 colon

| Compound | TGI (BT-549 breast) | TGI (DU-145 prostate) | TGI (HCT-116 colon) | TGI (HOP-62 NSCLC) | TGI (HOP-92 NSCLC) | TGI (HS 578T breast) | TGI (MDA-MB-231 breast) | TGI (MOLT-4 leukemia) | TGI (NCI-H460 lung) | TGI (OVCAR-3 ovarian) | TGI (RPMI-8226 leukemia) | TGI (SF-268 CNS) | TGI (SF-539 CNS) | TGI (SK-MEL-2 melanoma) | TGI (SK-OV-3 ovarian) | TGI (SN12C renal) | TGI (SNB-19 CNS) | TGI (SNB-75 CNS) | TGI (SW-620 colon) |
| --- | --- | --- | --- | --- | --- | --- | --- | --- | --- | --- | --- | --- | --- | --- | --- | --- | --- | --- | --- |
| CCCN(CCC)C(=S)N/N=C(/C)c1ccccc1O | 47.9 µM | > 100 µM | 18.4 µM | 52.8 µM | > 76.8 µM | > 100 µM | 52.8 µM | > 36.9 µM | 13.3 µM | 14.9 µM | > 57.7 µM | > 35.6 µM | 19.4 µM | 60.9 µM | > 75.5 µM | 26 µM | > 100 µM | 35.4 µM | > 100 µM |
| Cc1cc(S(=O)(=O)Nc2nnc3c4ccccc4cnn23)c(S)cc1Cl | > 92.3 µM | > 100 µM | > 100 µM | > 100 µM | > 100 µM | > 89 µM | > 100 µM | > 100 µM | > 85.1 µM | > 100 µM | > 100 µM | > 100 µM | > 95 µM | > 100 µM | > 92.7 µM | > 100 µM | > 88.9 µM | > 100 µM | > 100 µM |
| CNC(=O)N(CCC#N)CCN(C(=O)N(C)C)c1ccccc1 | > 100 µM | > 100 µM | > 100 µM | > 100 µM | > 100 µM | > 100 µM | > 100 µM | > 100 µM | > 100 µM | > 100 µM | > 100 µM | > 100 µM | > 100 µM | > 100 µM | > 100 µM | > 100 µM | > 100 µM | > 100 µM | > 100 µM |
| O=[N+]([O-])c1ccc(-n2nc3ccc4c(no[n+]4[O-])c3[n+]2[O-])c([N+](=O)[O-])c1 | 9.49 µM | 12.6 µM | 3.74 µM | 10.1 µM | 8.02 µM | 8.6 µM | 4.64 µM | 5.81 µM | 40.6 µM | 6.39 µM | 6.8 µM | 13.8 µM | 12.7 µM | 9.92 µM | 23 µM | 7.03 µM | 16.5 µM | 23.5 µM | 5.4 µM |
| Cn1c(=O)c2sc3c4sc5c(=O)n(C)c6ccccc6c5c4sc3c2c2ccccc21 | > 100 µM | > 100 µM | > 100 µM | > 100 µM | > 100 µM | > 100 µM | > 100 µM | > 100 µM | > 100 µM | > 100 µM | > 100 µM | > 100 µM | > 100 µM | > 100 µM | > 100 µM | > 100 µM | > 100 µM | > 100 µM | > 100 µM |
| c1ccc2c(c1)nc1n2CSCC1 | > 100 µM | > 100 µM | > 100 µM | > 100 µM | > 100 µM | > 100 µM | > 100 µM | > 100 µM | > 100 µM | > 100 µM | > 100 µM | > 100 µM | > 100 µM | > 100 µM | > 100 µM | > 100 µM | > 100 µM | > 100 µM | > 100 µM |
